Test results from US11918592B2, “Inhibitors of cyclin dependent kinase 7 (CDK7)” (Syros Pharmaceuticals, Inc., priority 2018, dated 2024).
Like-named read-outs stand apart in the source and are kept apart here.

Columns and labels:
HCC70 cells = test: Inhibition of cell proliferation, CyQUANT Direct, HCC70; format: cell-based, human; conditions: Homo sapiens, read-out: HCC 70 proliferation calculated IC50
COV318 cells = test: Inhibition of cell proliferation, CyQUANT Direct, COV318; format: cell-based; conditions: Homo sapiens; COV318 ovarian cancer cells, 72-hour; read-out: COV 318 proliferation calculated IC50
COV504 cells = test: Inhibition of cell proliferation, CyQUANT Direct, COV504; format: cell-based; conditions: Homo sapiens; COV504 ovarian cancer cells, 72-hour; read-out: COV 504 proliferation calculated IC50
MB453 cells = test: Inhibition of cell proliferation, CyQUANT Direct, MB453; format: cell-based, human; conditions: Homo sapiens, read-out: MB 453 proliferation calculated IC50
CDK2/Cyclin E1 complex = CDK2/Cyclin E1 complex (Homo sapiens, UniProt P24941); test: CDK2 kinase inhibition assay (Caliper/LabChip EZ Reader)
Experimental: (§1) Compounds of the invention were assayed for inhibition of CDK7, CDK9, CDK12, and CDK2 activity at Biortus Biosciences (Jiangyin, Jiangsu Province, P.R. of China) using kinase assays for each CDK developed with a Caliper/LabChip EZ Reader (Perkin Elmer, Waltham, MA).
(§2) Furthermore, the CDK9 inhibition assay used CDK9/Cyclin T1 complex (8 nM) and “5-FAM-CDK9tide” peptide substrate (2 μM, synthesized fluorophore-labeled peptide with the following sequence: 5-FAM-GSRTPMY-NH2 (SEQ ID NO:2) where 5-FAM is defined above and NH2 signifies a C-terminal amide) with 10 mM MgCl2 in the buffer composition listed above. The CDK12 inhibition assay used CDK12 (aa686-1082)/Cyclin K complex (50 nM) and “5-FAM-CDK9tide” (2 μM) as defined above, with 2 mM MgCl2 in the buffer composition above. Additionally, the CDK2 inhibition assay used CDK2/Cyclin E1 complex (0.5 nM) and “5-FAM-CDK7tide” (2 μM) as defined above, with 2 mM MgCl2 in the buffer composition listed above.
(§3) The incubation period at 27° C. for each CDK inhibition assay was chosen such that the fraction of phosphorylated peptide product produced in each assay, relative to the total peptide concentration, was approximately 20% (±5%) for the uninhibited kinase (35 min. for CDK7, 35 min. for CDK2, 3 hr. for CDK12, 15 min. for CDK9).

[1] = target: CDK7/Cyclin H/MAT1 complex (Homo sapiens, UniProt P50613); test: CDK7 kinase inhibition assay (Caliper/LabChip EZ Reader)
Experimental: as §1, §2, §3

CDK9/Cyclin T1 complex = CDK9/Cyclin T1 complex (Homo sapiens, UniProt P50750); test: CDK9 kinase inhibition assay (Caliper/LabChip EZ Reader)
[2] = target: CDK12 (aa686-1082)/Cyclin K complex (Homo sapiens, UniProt Q9NYV4); test: CDK12 kinase inhibition assay (Caliper/LabChip EZ Reader)
Experimental: as §1, §2, §3

[3] = HCC70 triple negative breast cancer cells, 72-hour
[4] = MB453 triple negative breast cancer cells, 72-hour

CDK12 (aa686-1082)/Cyclin K complex, sequence (Q9NYV4 686-1082): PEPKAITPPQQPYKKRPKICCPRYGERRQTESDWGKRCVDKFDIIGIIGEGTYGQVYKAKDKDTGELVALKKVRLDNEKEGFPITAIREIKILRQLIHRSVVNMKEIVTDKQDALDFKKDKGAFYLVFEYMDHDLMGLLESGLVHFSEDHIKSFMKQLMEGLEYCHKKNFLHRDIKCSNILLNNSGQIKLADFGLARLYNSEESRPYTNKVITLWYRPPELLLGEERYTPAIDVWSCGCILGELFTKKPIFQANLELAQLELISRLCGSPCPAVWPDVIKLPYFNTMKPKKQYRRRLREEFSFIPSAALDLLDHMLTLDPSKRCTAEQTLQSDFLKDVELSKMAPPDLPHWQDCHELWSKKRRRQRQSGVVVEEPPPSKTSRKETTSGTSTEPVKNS
CDK12 (aa686-1082)/Cyclin K complex, sequence (O75909 whole entry partner, the tested form may be a part): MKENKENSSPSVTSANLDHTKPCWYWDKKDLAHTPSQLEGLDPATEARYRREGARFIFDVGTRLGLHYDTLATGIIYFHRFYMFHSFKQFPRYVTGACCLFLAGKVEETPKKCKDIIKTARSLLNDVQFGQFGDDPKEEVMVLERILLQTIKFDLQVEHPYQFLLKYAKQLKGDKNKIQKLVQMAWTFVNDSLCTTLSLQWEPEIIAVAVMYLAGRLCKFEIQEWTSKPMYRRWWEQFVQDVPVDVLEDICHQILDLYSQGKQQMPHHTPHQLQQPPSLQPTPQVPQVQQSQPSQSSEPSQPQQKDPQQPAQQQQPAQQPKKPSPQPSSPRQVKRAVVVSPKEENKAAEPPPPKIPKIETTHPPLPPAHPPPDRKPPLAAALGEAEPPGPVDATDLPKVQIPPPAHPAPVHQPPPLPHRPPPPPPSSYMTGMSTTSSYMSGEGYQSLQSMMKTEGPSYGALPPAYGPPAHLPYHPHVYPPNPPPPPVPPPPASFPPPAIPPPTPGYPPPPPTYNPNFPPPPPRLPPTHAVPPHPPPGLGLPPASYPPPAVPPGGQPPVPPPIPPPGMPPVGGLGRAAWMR
CDK7/Cyclin H/MAT1 complex, sequence (P50613 whole entry): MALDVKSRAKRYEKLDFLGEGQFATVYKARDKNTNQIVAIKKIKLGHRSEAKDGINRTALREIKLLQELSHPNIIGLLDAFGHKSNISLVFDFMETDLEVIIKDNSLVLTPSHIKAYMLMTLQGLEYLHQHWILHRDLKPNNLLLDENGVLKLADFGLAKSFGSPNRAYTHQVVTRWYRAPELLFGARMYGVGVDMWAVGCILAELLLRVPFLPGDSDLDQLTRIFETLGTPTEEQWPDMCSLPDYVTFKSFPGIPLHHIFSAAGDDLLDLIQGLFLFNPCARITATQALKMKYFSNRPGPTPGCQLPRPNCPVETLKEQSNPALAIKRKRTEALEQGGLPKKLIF
CDK7/Cyclin H/MAT1 complex, sequence (P51946 whole entry partner): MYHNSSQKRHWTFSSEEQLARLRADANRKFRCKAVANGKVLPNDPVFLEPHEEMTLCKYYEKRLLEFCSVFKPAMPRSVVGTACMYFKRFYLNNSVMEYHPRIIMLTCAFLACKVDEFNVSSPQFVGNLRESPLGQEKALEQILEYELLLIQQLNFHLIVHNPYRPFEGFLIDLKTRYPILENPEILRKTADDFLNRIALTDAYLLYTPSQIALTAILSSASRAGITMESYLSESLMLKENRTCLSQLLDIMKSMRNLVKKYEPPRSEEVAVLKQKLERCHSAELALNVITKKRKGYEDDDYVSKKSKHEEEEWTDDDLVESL
CDK7/Cyclin H/MAT1 complex, sequence (P51948 whole entry partner): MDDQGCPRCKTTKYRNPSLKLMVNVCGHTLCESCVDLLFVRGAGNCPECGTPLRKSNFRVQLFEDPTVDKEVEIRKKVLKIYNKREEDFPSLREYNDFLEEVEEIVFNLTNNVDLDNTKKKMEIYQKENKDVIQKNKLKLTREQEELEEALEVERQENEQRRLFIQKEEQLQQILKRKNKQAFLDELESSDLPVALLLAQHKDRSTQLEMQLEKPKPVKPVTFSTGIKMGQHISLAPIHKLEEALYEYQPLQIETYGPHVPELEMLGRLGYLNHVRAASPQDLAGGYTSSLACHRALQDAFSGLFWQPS
CDK9/Cyclin T1 complex, sequence (P50750 whole entry, the tested form may be a part): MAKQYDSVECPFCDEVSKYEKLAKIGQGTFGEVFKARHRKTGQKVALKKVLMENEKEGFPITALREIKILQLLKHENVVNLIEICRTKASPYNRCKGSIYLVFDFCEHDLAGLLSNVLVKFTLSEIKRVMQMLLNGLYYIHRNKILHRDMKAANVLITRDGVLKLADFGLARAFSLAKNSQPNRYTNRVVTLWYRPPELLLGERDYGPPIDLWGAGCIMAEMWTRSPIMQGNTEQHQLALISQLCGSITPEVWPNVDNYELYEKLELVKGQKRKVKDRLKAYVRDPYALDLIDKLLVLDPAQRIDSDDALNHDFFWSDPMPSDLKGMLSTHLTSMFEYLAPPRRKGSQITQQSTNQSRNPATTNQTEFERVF
CDK9/Cyclin T1 complex, sequence (O60563 whole entry partner, the tested form may be a part): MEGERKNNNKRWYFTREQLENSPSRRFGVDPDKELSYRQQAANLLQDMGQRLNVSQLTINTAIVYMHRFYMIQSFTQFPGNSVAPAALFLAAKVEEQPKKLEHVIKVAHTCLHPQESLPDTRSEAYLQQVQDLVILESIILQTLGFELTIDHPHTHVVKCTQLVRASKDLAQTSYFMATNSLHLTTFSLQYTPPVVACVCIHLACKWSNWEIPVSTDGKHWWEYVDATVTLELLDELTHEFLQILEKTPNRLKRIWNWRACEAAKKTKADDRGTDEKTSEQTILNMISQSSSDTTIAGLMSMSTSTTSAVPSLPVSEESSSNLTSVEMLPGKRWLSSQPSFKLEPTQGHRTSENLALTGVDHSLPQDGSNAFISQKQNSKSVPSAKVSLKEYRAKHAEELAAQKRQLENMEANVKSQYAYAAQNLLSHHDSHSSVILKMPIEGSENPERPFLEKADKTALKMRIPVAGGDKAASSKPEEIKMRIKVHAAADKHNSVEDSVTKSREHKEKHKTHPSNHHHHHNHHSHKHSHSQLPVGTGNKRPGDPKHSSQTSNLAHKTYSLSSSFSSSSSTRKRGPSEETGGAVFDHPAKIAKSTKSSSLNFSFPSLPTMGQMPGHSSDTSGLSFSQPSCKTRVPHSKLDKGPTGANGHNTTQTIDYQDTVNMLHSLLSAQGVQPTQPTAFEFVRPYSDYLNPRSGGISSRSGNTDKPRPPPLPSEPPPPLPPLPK

SMILES: Cc1noc(C)c1-c1ccc2c(-c3nc(N[C@H]4CCCC4N4CCCC4)ncc3C(F)(F)F)c[nH]c2n1 (stereo partly drawn) [Compound 144, 4-[6-(3,5-dimethylisoxazol-4-yl)-1H-pyrrolo[2,3-b]pyridin-3-yl]-N-[(1S)-2-pyrrolidin-1-ylcyclopentyl]-5-(trifluoromethyl) pyrimidin-2-amine]
- IC50 (HCC70 cells; [3]): 100 to 500 nM
- IC50 (COV318 cells): < 100 nM
- IC50 (COV504 cells): < 100 nM
- IC50 (MB453 cells; [4]): < 100 nM
- IC50 (CDK2/Cyclin E1 complex): > 500 nM
- IC50 [1]: < 30 nM
- IC50 (CDK9/Cyclin T1 complex): > 500 nM
- IC50 [2]: > 500 nM

SMILES: Cc1noc(C)c1-c1ccc2c(-c3nc(N[C@H]4CCC[C@@H]4N4CC(F)(F)C4)ncc3C(F)(F)F)c[nH]c2n1 [Compound 166, N-[(1S,2S)-2-(3,3-difluoroazetidin-1-yl)cyclopentyl]-4-[6-(3,5-dimethylisoxazol-4-yl)-1H-pyrrolo[2,3-b]pyridin-3-yl]-5-(trifluoromethyl)pyrimidin-2-amine]
- IC50 (HCC70 cells; [3]): > 2000 nM
- IC50 (COV318 cells): > 2000 nM
- IC50 (COV504 cells): > 2000 nM
- IC50 (MB453 cells; [4]): > 2000 nM
- IC50 (CDK2/Cyclin E1 complex): > 500 nM
- IC50 [1]: > 500 nM
- IC50 (CDK9/Cyclin T1 complex): > 500 nM
- IC50 [2]: > 500 nM

SMILES: Cc1noc(C)c1-c1ccc2c(-c3nc(N[C@H]4C[C@H]5CC[C@@H]4N5)ncc3C(F)(F)F)c[nH]c2n1 [Compound 139]
- IC50 (HCC70 cells; [3]): 100 to 500 nM
- IC50 (COV318 cells): 500 to 2000 nM
- IC50 (COV504 cells): 100 to 500 nM
- IC50 (MB453 cells; [4]): 100 to 500 nM
- IC50 (CDK2/Cyclin E1 complex): > 500 nM
- IC50 [1]: < 30 nM
- IC50 (CDK9/Cyclin T1 complex): > 500 nM
- IC50 [2]: > 500 nM

SMILES: N[C@H]1CCC[C@@H]1Nc1ncc(C(F)(F)F)c(-c2c[nH]c3c(Cl)c(O)ccc23)n1 [Compound 168, 3-[2-[[(1S,2S)-2-aminocyclopentyl]amino]-5-(trifluoromethyl)pyrimidin-4-yl]-7-chloro-1H-indol-6-ol]
- IC50 (HCC70 cells; [3]): 100 to 500 nM
- IC50 (COV318 cells): 100 to 500 nM
- IC50 (COV504 cells): < 100 nM
- IC50 (MB453 cells; [4]): < 100 nM
- IC50 (CDK2/Cyclin E1 complex): > 500 nM
- IC50 [1]: < 30 nM
- IC50 (CDK9/Cyclin T1 complex): > 500 nM
- IC50 [2]: > 500 nM

SMILES: Cc1noc(C)c1-c1ccc2c(-c3nc(N[C@H]4CCC[C@@H]4N)ncc3C(F)(F)F)n[nH]c2n1 [Compound 157, (1S,2S)—N1-[4-[6-(3,5-dimethylisoxazol-4-yl)-1H-pyrazolo [3,4-b]pyridin-3-yl]-5-(trifluoromethyl)pyrimidin-2-yl]cyclopentane-1,2-diamine]
- IC50 (HCC70 cells; [3]): 100 to 500 nM
- IC50 (COV318 cells): 100 to 500 nM
- IC50 (COV504 cells): 100 to 500 nM
- IC50 (MB453 cells; [4]): 100 to 500 nM
- IC50 (CDK2/Cyclin E1 complex): > 500 nM
- IC50 [1]: < 30 nM
- IC50 (CDK9/Cyclin T1 complex): > 500 nM
- IC50 [2]: > 500 nM

SMILES: N#Cc1ccc2c(-c3nc(N[C@H]4Cc5ccccc5[C@@H]4N)ncc3C(F)(F)F)c[nH]c2c1 [Compound 119, 3-[2-[[(1S,2S)-1-aminoindan-2-yl]-amino]-5-(trifluoromethyl)pyrimidin-4-yl]-1H-indole-6-carbonitrile]
- IC50 (HCC70 cells; [3]): 100 to 500 nM
- IC50 (COV318 cells): > 2000 nM
- IC50 (COV504 cells): 100 to 500 nM
- IC50 (MB453 cells; [4]): 100 to 500 nM
- IC50 (CDK2/Cyclin E1 complex): > 500 nM
- IC50 [1]: < 30 nM
- IC50 (CDK9/Cyclin T1 complex): > 500 nM
- IC50 [2]: > 500 nM

SMILES: Cc1noc(C)c1-c1ccc2c(-c3nc(N[C@H]4CCC[C@@H]4N4CCC4)ncc3C(F)(F)F)c[nH]c2n1 [Compound 146, N-[(1S, 2S)-2-(azetidin-1-yl)cyclopentyl]-4-[6-(3,5-dimethylisoxazol-4-yl)-1H-pyrrolo [2,3-b]pyridin-3-yl]-5-(trifluoromethyl) pyrimidin-2-amine]
- IC50 (HCC70 cells; HCC70, 72 h): < 100 nM
- IC50 (COV318 cells): > 2000 nM
- IC50 (COV504 cells): < 100 nM
- IC50 (MB453 cells; 72 h): < 100 nM
- IC50 (CDK2/Cyclin E1 complex): > 500 nM
- IC50 [1]: < 30 nM
- IC50 (CDK9/Cyclin T1 complex): > 500 nM
- IC50 [2]: > 500 nM

SMILES: Cc1noc(C)c1-c1ccc2c(-c3nc(N[C@H]4CCC[C@@H]4N4CC[C@@H](F)C4)ncc3C(F)(F)F)c[nH]c2n1 [Compound 148, 4-[6-(3,5-dimethylisoxazol-4-yl)-1H-pyrrolo[2,3-b]pyridin-3-yl]-N-[(1S,2S)-2-[(3R)-3-fluoropyrrolidin-1-yl]cyclopentyl]-5-(trifluoromethyl)pyrimidin-2-amine]
- IC50 (HCC70 cells; [3]): 100 to 500 nM
- IC50 (COV318 cells): > 2000 nM
- IC50 (COV504 cells): < 100 nM
- IC50 (MB453 cells; [4]): 100 to 500 nM
- IC50 (CDK2/Cyclin E1 complex): > 500 nM
- IC50 [1]: < 30 nM
- IC50 (CDK9/Cyclin T1 complex): > 500 nM
- IC50 [2]: > 500 nM

SMILES: Cc1noc(C)c1-c1ccc2c(-c3nc(N[C@@H]4C[C@@H]5CC[C@H]4N5)ncc3C(F)(F)F)c[nH]c2c1 [Compound 137, (1S,2S,4R)—N-[4-[6-(3,5-dimethylisoxazol-4-yl)-1H-indol-3-yl]-5-(trifluoromethyl)pyrimidin-2-yl]-7-azabicyclo-[2.2.1]-heptan-3-amine]
- IC50 (HCC70 cells; [3]): < 100 nM
- IC50 (COV318 cells): 100 to 500 nM
- IC50 (COV504 cells): < 100 nM
- IC50 (MB453 cells; [4]): < 100 nM
- IC50 (CDK2/Cyclin E1 complex): > 500 nM
- IC50 [1]: < 30 nM
- IC50 (CDK9/Cyclin T1 complex): > 500 nM
- IC50 [2]: > 500 nM

SMILES: N#Cc1ccc2c(-c3nc(N[C@@H]4CC[C@H]4N4CCOCC4)ncc3C(F)(F)F)c[nH]c2c1 [Compound 132]
- IC50 (HCC70 cells; [3]): > 2000 nM
- IC50 (COV318 cells): > 2000 nM
- IC50 (COV504 cells): > 2000 nM
- IC50 (MB453 cells; [4]): > 2000 nM
- IC50 (CDK2/Cyclin E1 complex): > 500 nM
- IC50 [1]: > 500 nM
- IC50 (CDK9/Cyclin T1 complex): > 500 nM
- IC50 [2]: > 500 nM

SMILES: Cc1noc(C)c1-c1ccc2c(-c3nc(N[C@@H]4C[C@@H]5CC[C@H]4N5)ncc3C(F)(F)F)c[nH]c2n1 [Compound 140]
- IC50 (HCC70 cells; [3]): < 100 nM
- IC50 (COV318 cells): < 100 nM
- IC50 (COV504 cells): < 100 nM
- IC50 (MB453 cells; [4]): < 100 nM
- IC50 (CDK2/Cyclin E1 complex): > 500 nM
- IC50 [1]: < 30 nM
- IC50 (CDK9/Cyclin T1 complex): > 500 nM
- IC50 [2]: > 500 nM

SMILES: Cc1noc(C)c1-c1ccc2c(-c3nc(NC4CC[C@@H]4N4CCCC4)ncc3C(F)(F)F)c[nH]c2n1 (stereo in doubt) [Compound 149, 4-[6-(3,5-dimethylisoxazol-4-yl)-1H-pyrrolo[2,3-b]pyridin-3-yl]-N-(2-pyrrolidin-1-ylcyclobutyl)-5-(trifluoromethyl) pyrimidin-2-amine]
- IC50 (HCC70 cells; [3]): < 100 nM
- IC50 (COV318 cells): > 2000 nM
- IC50 (COV504 cells): < 100 nM
- IC50 (MB453 cells; [4]): < 100 nM
- IC50 (CDK2/Cyclin E1 complex): > 500 nM
- IC50 [1]: < 30 nM
- IC50 (CDK9/Cyclin T1 complex): > 500 nM
- IC50 [2]: > 500 nM

SMILES: Cc1noc(C)c1-c1ccc2c(-c3nc(N[C@H]4CCC[C@@H]4N4CC(F)C4)ncc3C(F)(F)F)c[nH]c2n1 [Compound 155, 4-[6-(3,5-dimethylisoxazol-4-yl)-1H-pyrrolo [2,3-b]pyridin-3-yl]-N-[(1S, 2S)-2-(3-fluoroazetidin-1-yl)cyclopentyl]-5-(trifluoromethyl) pyrimidin-2-amine]
- IC50 (HCC70 cells; [3]): > 2000 nM
- IC50 (COV318 cells): > 2000 nM
- IC50 (COV504 cells): > 2000 nM
- IC50 (MB453 cells; [4]): > 2000 nM
- IC50 (CDK2/Cyclin E1 complex): > 500 nM
- IC50 [1]: 100 to 500 nM
- IC50 (CDK9/Cyclin T1 complex): > 500 nM
- IC50 [2]: > 500 nM

SMILES: CC(=O)N[C@H]1CC[C@@H]1Nc1ncc(C(F)(F)F)c(-c2c[nH]c3cc(C#N)ccc23)n1 [Compound 125, N-[(1S,2S)-2-[[4-(6-cyano-1H-indol-3-yl)-5-(trifluoromethyl)pyrimidin-2-yl]-amino]-cyclobutyl]-acetamide]
- IC50 (HCC70 cells; [3]): > 2000 nM
- IC50 (COV318 cells): > 2000 nM
- IC50 (COV504 cells): > 2000 nM
- IC50 (MB453 cells; [4]): 500 to 2000 nM
- IC50 (CDK2/Cyclin E1 complex): > 500 nM
- IC50 [1]: > 500 nM
- IC50 (CDK9/Cyclin T1 complex): > 500 nM
- IC50 [2]: > 500 nM
